From patent publication US12648933B2, “Pharmaceutical preparation” (KOWA COMPANY, LTD., priority 2018, dated 2026)
“Also recorded” adds a separate entry of the source.

Assay: Examination on Stability (storage at 60° C. and 80% RH for 21 days, state of sample)
Type: physicochemical
Conditions: glass vessel with lid opened (1-1 to 1-3) or closed glass bottle = tight package (1-4)
From the text: Examination on Stability […] […] Pemafibrate as it was placed in a glass vessel with a lid opened and labeled as Sample 1-1. […] Ethylcellulose ([…] Co., Ltd.) was mixed with pemafibrate in a ratio of 1 part by mass to 1 part by mass of pemafibrate to obtain a mixture. […] Ethylcellulose ([…] Co., Ltd.) was mixed with pemafibrate in a ratio of 1 part by mass to 1 part by mass of pemafibrate to obtain a mixture.

Question: With CC[C@@H](Oc1cccc(CN(CCCOc2ccc(OC)cc2)c2nc3ccccc3o2)c1)C(=O)O [Sample 1-1, (2R)-2-[3-([1,3-Benzoxazol-2-yl[3-(4-methoxyphenoxy)propyl]amino]methyl)phenoxy]butanoic acid] as the compound, how does the “State of mixture, 21 days later” value (after 21 days of storage) read?
Answer: The value was “maintained the same state; also recorded: White powder”.

Question: And the “State of mixture, immediately after the start of storage” value (start of storage)?
Answer: The value was “White powder”.
